Source: patent US10835505B2, “Oral pharmaceutical formulation for weight loss, diabetes and related disorders” (priority 2018, dated 2020)
Where a name gives a salt, the structure may show the parent alone.

Columns and labels:
[1] = judged, times more bitter than denatonium benzoate; cited from earlier work
TAS2R subtypes = conditions: cited from earlier work
[2] = C57BL/6 DIO mice, 60 μmol/kg DB (26.8 mg/kg) once daily, 28-day period, vs vehicle; cited from earlier work
[3] = acute food intake inhibition study, oral gavage, Sprague Dawley rats; format: in vivo
Text: In a short-term food intake inhibition study, in Sprague Dawley rats the doses of DB administered were 7.5, 15, 30, and 60 μmol/kg. The corresponding human equivalent doses (HED) are be 1.2, 2.4, 4.9, 9.7 μmol/kg, respectively. In a longer-term food intake inhibition study in C57BL/6NTac mice the dose of DB used was 60 μmol/kg. The corresponding HED was 4.9 μmol/kg. […] Therefore, the disclosed formulation provides a dose of DB from about 500 nmol/kg to about […], which corresponds to from about 10 mg to about 200 mg for a human adult.
This example provides the results of an oral dose rat gavage study, measuring food and water intake following administration of a disclosed formulation by gavage. We conducted an acute food intake inhibition study of DB in Sprague Dawley rats.
For a longer term study, in view of the foregoing acute study findings, the effect of a combination of components was investigated. To ensure the adequate effect of the DB combination, 60 μmol/kg (26.8 mg/kg) once daily for DB in the first two weeks of the study was used, and then switched to twice daily in the last two weeks of the study.

[4] = normal C57BL/6 mice, oral DB only at 60 μmol/kg (26.8 mg/kg); cited from earlier work
[5] = healthy volunteers, 1 μmol/kg DB; cited from earlier work
[6] = in vivo; cited from earlier work

CC[N+](CC)(CC(=O)Nc1c(C)cccc1C)Cc1ccccc1 [denatonium saccharide, benzyl-[2-(2,6-dimethylanilino)-2-oxoethyl]-diethylazanium; 1,1-dioxo-1,2-benzothiazol-3-olate]
bitterness relative to denatonium benzoate [1]: 5 times

O=C(/C=C/c1ccc(O)c(O)c1)O[C@@H]1C[C@]2(O)C[C@@H](OC2=O)[C@@H]1O [3-CQL, (1R,3R,4R,5R)-1,4-Dihydroxy-7-oxo-6-oxabicyclo[3.2.1]oct-3-yl (2E)-3-(3,4-dihydroxyphenyl)acrylate]
number of TAS2R subtypes activated (TAS2R subtypes): eight

CC[N+](CC)(CC(=O)Nc1c(C)cccc1C)Cc1ccccc1.O=C([O-])c1ccccc1 [DB, benzyl-[2-(2,6-dimethylanilino)-2-oxoethyl]-diethylazanium benzoate]
number of TAS2R subtypes activated (TAS2R subtypes): eight | body weight [2]: induced a decrease in body weight | food intake ([3]; Sprague Dawley rats, various doses of DB by gavage, within the first 6 h after administration): significantly inhibited food intake | half-life ([3]; rat, in vivo, oral, inferred from duration of food intake inhibition in Sprague Dawley rats): 6 h | gastric emptying rate [4]: significantly inhibited gastric emptying rate | nutrient volume tolerance [5]: decreased nutrient volume tolerance | satiation [5]: increased satiation

CN1CCc2cccc3c2[C@H]1Cc1ccc(O)c(O)c1-3 [Apomorphine, (6aR)-5,6,6a,7-Tetrahydro-6-methyl-4H-dibenzo(de,g)chinolin-10,11-diol hydrochlorid]
oral availability [6]: ~4%

C=C[C@H]1C[N@]2CC[C@H]1C[C@H]2[C@H](O)c1ccnc2ccc(OC)cc12 [Quinine, (R)-[(2S,4S,5R)-5-ethenyl-1-azabicyclo[2.2.2]octan-2-yl]-(6-methoxyquinolin-4-yl)methanol, reference compound]
number of TAS2R subtypes activated (TAS2R subtypes): nine
